pIC50: −log10 of the molar value.
Molecular target: T1, human chemokine receptor 2 isoform B (Homo sapiens, UniProt P41597)
T1 construct: host or cells: CHOK1-CCR2B-A5 (CHO-K1)
T1 sequence (P41597 1-360 isoform P41597-2): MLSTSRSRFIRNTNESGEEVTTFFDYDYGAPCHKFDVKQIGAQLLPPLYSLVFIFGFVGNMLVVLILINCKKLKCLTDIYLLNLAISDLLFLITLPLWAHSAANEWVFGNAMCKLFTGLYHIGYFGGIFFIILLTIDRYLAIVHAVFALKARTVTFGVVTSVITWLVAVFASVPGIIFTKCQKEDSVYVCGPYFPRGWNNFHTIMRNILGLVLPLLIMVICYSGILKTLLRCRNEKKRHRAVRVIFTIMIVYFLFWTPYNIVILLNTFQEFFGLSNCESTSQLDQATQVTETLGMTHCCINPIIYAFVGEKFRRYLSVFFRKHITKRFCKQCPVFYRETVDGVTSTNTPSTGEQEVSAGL
Assay: Calcium mobilization assay (FLIPR, CHOK1-CCR2B-A5 cells, 20 nM MCP-1)
Assay type: cell-based
Conditions: Ca mobilisation assay, CCR2, antagonist activity vs 20 nM MCP-1
Outline: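 Antagonism read as IC50 against 20 nM MCP-1-evoked calcium rise (peak minus baseline Fluo-4 signal, FLIPR) in CCR2B-overexpressing CHO-K1 cells. Compounds were preincubated 20-30 min at 30 °C, with agonist activity recorded for 80 s on addition.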

pIC50 | Structure (SMILES)
6.49 | O=C(/C=C/c1ccc(F)c(Cl)c1)N1CCC(=O)N(CCCCN2CC[C@H](F)[C@@H](O)C2)CC1 (relative stereo) [Example 389]
7.60 | CC1CCN(CCCN2CCN(C(=O)/C=C/c3ccc(F)c(Cl)c3)CCC2=O)CC1O (single isomer, unassigned) [Example 191, 1-[(E)-3-(3-Chloro-4-fluoro-phenyl)-acryloyl]-4-[3-((−, cis)-3-hydroxy-4-methyl-piperidin-1-yl)-propyl]-[1,4]diazepan-5-one]
7.24 | CC1CCN(CCCN2CCN(C(=O)C=Cc3ccc(Cl)c(Cl)c3)CCC2=O)CC1O (single isomer, unassigned) [Example 259, 1-[(E)-3-(3,4-Dichloro-phenyl)-acryloyl]-4-[3-((+, cis)-3-hydroxy-4-methyl-piperidin-1-yl)-propyl]-[1,4]diazepan-5-one]
8.05 | CC1CCN(CCCN2CCN(C(=O)C=Cc3ccc(Cl)c(Cl)c3)CCC2=O)CC1O (single isomer, unassigned) [Example 260, 1-[(E)-3-(3,4-Dichloro-phenyl)-acryloyl]-4-[3-((−, cis)-3-hydroxy-4-methyl-piperidin-1-yl)-propyl]-[1,4]diazepan-5-one]
8.22 | CC1(CO)CCN(CC(O)CN2CCN(C(=O)C=Cc3ccc(Cl)c(Cl)c3)CCC2=O)CC1O (single isomer, unassigned) [Example 330]
7.23 | CC1(CO)CCN(CC(O)CN2CCN(C(=O)C=Cc3ccc(Cl)c(Cl)c3)CCC2=O)CC1O (single isomer, unassigned) [Example 331]
6.67 | CC1CCN(CCCN2CCN(C(=O)C=Cc3ccc(Cl)c(F)c3)CCC2=O)CC1O (single isomer, unassigned) [Example 491, 1-[(E)-3-(4-Chloro-3-fluoro-phenyl)-acryloyl]-4-[3-((+,cis)-3-hydroxy-4-methyl-piperidin-1-yl)-propyl]-[1,4]diazepan-5-one]
7.59 | CC1CCN(CCCN2CCN(C(=O)C=Cc3ccc(Cl)c(F)c3)CCC2=O)CC1O (single isomer, unassigned) [Example 492, 1-[(E)-3-(4-Chloro-3-fluoro-phenyl)-acryloyl]-4-[3-((−,cis)-3-hydroxy-4-methyl-piperidin-1-yl)-propyl]-[1,4]diazepan-5-one]
6.17 | O=C(/C=C/c1cccc(Cl)c1)N1CCC(=O)N(CCN2CCCC2)CC1 [Example 1, 1-[(E)-3-(3-Chloro-phenyl)-acryloyl]-4-(2-pyrrolidin-1-yl-ethyl)-[1,4]diazepan-5-one]
5.90 | O=C(/C=C/c1ccc(Cl)c(Cl)c1)N1CCC(=O)N(CCN2CCCCC2)CC1 [Example 3, 1-[(E)-3-(3,4-Dichloro-phenyl)-acryloyl]-4-(2-piperidin-1-yl-ethyl)-[1,4]diazepan-5-one]
6.82 | O=C(/C=C/c1ccc(Cl)c(Cl)c1)N1CCC(=O)N(CCCN2CCCCC2)CC1 [Example 4, 1-[(E)-3-(3,4-Dichloro-phenyl)-acryloyl]-4-(3-piperidin-1-yl-propyl)-[1,4]diazepan-5-one]
5.88 | O=C(/C=C/c1ccc(Cl)c(Cl)c1)N1CCC(=O)N(CCCN2CCOCC2)CC1 [Example 6, 1-[(E)-3-(3,4-Dichloro-phenyl)-acryloyl]-4-(3-morpholin-4-yl-propyl)-[1,4]diazepan-5-one]
5.89 | O=C(/C=C/c1ccc(F)c(F)c1)N1CCC(=O)N(CCCN2CCCCC2)CC1 [Example 7, 1-[(E)-3-(3,4-Difluoro-phenyl)-acryloyl]-4-(3-piperidin-1-yl-propyl)-[1,4]diazepan-5-one]
6.85 | O=C(/C=C/c1ccc(Cl)c(Cl)c1)N1CCC(=O)N(CCCCN2CCCCC2)CC1 [Example 9, 1-[(E)-3-(3,4-Dichloro-phenyl)-acryloyl]-4-(4-piperidin-1-yl-butyl)-[1,4]diazepan-5-one]
7.14 | CN(CCCCN1CCN(C(=O)/C=C/c2ccc(Cl)c(Cl)c2)CCC1=O)C1CCOCC1 [Example 10, 1-[(E)-3-(3,4-Dichloro-phenyl)-acryloyl]-4-{4-[methyl-(tetrahydro-pyran-4-yl)-amino]-butyl}-[1,4]diazepan-5-one]
6.44 | O=C(/C=C/c1ccc(F)c(Cl)c1)N1CCC(=O)N(CCCN2CCCCC2)CC1 [Example 11, 1-[(E)-3-(3-Chloro-4-fluoro-phenyl)-acryloyl]-4-(3-piperidin-1-yl-propyl)-[1,4]diazepan-5-one]
6.14 | O=C(/C=C/c1ccc(Cl)c(F)c1)N1CCC(=O)N(CCCN2CCCCC2)CC1 [Example 13, 1-[(E)-3-(4-Chloro-3-fluoro-phenyl)-acryloyl]-4-(3-piperidin-1-yl-propyl)-[1,4]diazepan-5-one]

pIC50 | Structure (SMILES)
6.12 | O=C(/C=C/c1ccc(OCc2ccccc2)cc1)N1CCC(=O)N(CCN2CCCC2)CC1 [Example 17, 1-[(E)-3-(4-Benzyloxy-phenyl)-acryloyl]-4-(2-pyrrolidin-1-yl-ethyl)-[1,4]diazepan-5-one]
5.99 | O=C(/C=C/c1ccc2ccccc2c1)N1CCC(=O)N(CCN2CCCC2)CC1 [Example 25, 1-(E)-(3-Naphthalen-2-yl-acryloyl)-4-(2-pyrrolidin-1-yl-ethyl)-[1,4]diazepan-5-one]
6.61 | O=C(/C=C/c1cccc(Cl)c1)N1CCC(=O)N(CCN2CCC(c3c[nH]c4cc(F)ccc34)CC2)CC1 [Example 27, 1-[(E)-3-(3-Chloro-phenyl)-acryloyl]-4-{3-[4-(6-fluoro-1H-indol-3-yl)-piperidin-1-yl]-ethyl}-[1,4]diazepan-5-one]
5.83 | O=C(/C=C/c1cccc(Cl)c1)N1CCC(=O)N(CCN2CCC(c3ccccc3)CC2)CC1 [Example 32, 1-[(E)-3-Chloro-phenyl-acryloyl]-4-{2-[4-phenyl-piperidin-1-yl]-ethyl}-[1,4]diazepan-5-one]
6.46 | O=C(/C=C/c1cccc(Cl)c1)N1CCC(=O)N(CCN2CCC(c3ccc(F)cc3)CC2)CC1 [Example 33, 1-[(E)-3-(3-Chloro-phenyl)-acryloyl]-4-[3-(4-(4-fluoro-phenyl)-piperidin-1-yl)-ethyl]-[1,4]diazepan-5-one]
5.86 | O=C(/C=C/c1cccc(Cl)c1)N1CCC(=O)N(CCN2CCC(c3cccc(Cl)c3)CC2)CC1 [Example 34, 1-[(E)-3-(3-Chloro-phenyl)-acryloyl]-4-{2-[4-(3-chloro-phenyl)-piperidin-1-yl]-ethyl}-[1,4]diazepan-5-one]
6.14 | O=C(/C=C/c1ccc(Cl)c(Cl)c1)N1CCC(=O)N(CCCNC2CCCC2)CC1 [Example 36, 4-[3-(Cyclopentyl-amino)-propyl]-1-[(E)-3-(3,4-dichloro-phenyl)-acryloyl]-[1,4]diazepan-5-one]
6.58 | CN(CCCN1CCN(C(=O)/C=C/c2ccc(Cl)c(Cl)c2)CCC1=O)C1CCCC1 [Example 37, 4-[-3-(Cyclopentyl-methyl-amino)-propyl]-1-[(E)-3-(3,4-dichloro-phenyl)-acryloyl]-[1,4]diazepan-5-one]
6.27 | CN(CCCN1CCN(C(=O)/C=C/c2ccc(Cl)c(Cl)c2)CCC1=O)C1CCCCC1 [Example 39, 4-[3-(Cyclohexyl-methyl-amino)-propyl]-1-[(E)-3-(3,4-dichloro-phenyl)-acryloyl]-[1,4] diazepan-5-one]
6.21 | O=C(/C=C/c1ccc(Cl)c(Cl)c1)N1CCC(=O)N(CCCN2CCS(=O)(=O)CC2)CC1 [Example 40, 1-[(E)-3-(3,4-Dichloro-phenyl)-acryloyl]-4-[3-(1,1-dioxo-thiomorpholin-4-yl)-propyl]-[1,4]diazepan-5-one]
5.93 | COCCN(C)CCCN1CCN(C(=O)/C=C/c2ccc(Cl)c(Cl)c2)CCC1=O [Example 41, 1-[(E)-3-(3,4-Dichloro-phenyl)-acryloyl]-4-{3-[(2-methoxy-ethyl)-methyl-amino]-propyl}-[1,4]diazepan-5-one]
7.89 | O=C(/C=C/c1ccc(Cl)c(Cl)c1)N1CCC(=O)N(CCCN2CCC(c3ccccc3)CC2)CC1 [Example 45, 1-[(E)-3-(3,4-Dichloro-phenyl)-acryloyl]-4-[3-(4-phenyl-piperidin-1-yl)-propyl]-[1,4]diazepan-5-one]
6.48 | O=C(/C=C/c1ccc(Cl)c(Cl)c1)N1CCC(=O)N(CCCN2CCCC2)CC1 [Example 46, 1-[(E)-3-(3,4-Dichloro-phenyl)-acryloyl]-4-(3-pyrrolidin-1-yl-propyl)-[1,4]diazepan-5-one]
6.71 | O=C(/C=C/c1ccc(Cl)c(Cl)c1)N1CCC(=O)N(CCCN2CCC[C@H]2CO)CC1 [Example 47, (S)-1-[(E)-3-(3,4-Dichloro-phenyl)-acryloyl]-4-[3-(2-hydroxymethyl-pyrrolidin-1-yl)-propyl]-[1,4]diazepan-5-one]
6.29 | O=C(/C=C/c1ccc(Cl)c(Cl)c1)N1CCC(=O)N(CCCN2CCC(O)(Cc3ccccc3)CC2)CC1 [Example 49, 4-[(E)-3-(4-Benzyl-4-hydroxy-piperidin-1-yl)-propyl]-1-[(E)-3-(3,4-dichloro-phenyl)-acryloyl]-[1,4]diazepan-5-one]
7.26 | CC1CCN(CCCN2CCN(C(=O)/C=C/c3ccc(Cl)c(Cl)c3)CCC2=O)CC1 [Example 50, 1-[(E)-3-(3,4-Dichloro-phenyl)-acryloyl]-4-[3-(4-methyl-piperidin-1-yl)-propyl]-[1,4]diazepan-5-one]
7.34 | O=C(/C=C/c1ccc(Cl)c(Cl)c1)N1CCC(=O)N(CCCN2CCSCC2)CC1 [Example 51, 1-[(E)-3-(3,4-Dichloro-phenyl)-acryloyl]-4-(3-thiomorpholin-4-yl-propyl)-[1,4]diazepan-5-one]
